The text below walks through data of patent US6713603B2, “Chiral peptide nucleic acids” (Isis Innovation Limited, priority 1996, dated 2004).

[cPNA-N] = chiral peptide nucleic acid unit: glycyl-D-proline with cis-4-nucleobase (N: the base); {LysNH2} = C-terminal L-lysinamide cap Where only a bound is given, the exact number is not on record here.

The subject of one series is Sequence ID No. 2. In words: Tm of mixed-base cPNA hybridised with complementary oligonucleotide Sequence ID No. 2. The series is classed as binding. From the text: (§1) All four bases found in DNA were introduced into the glycyiproline building units with the cis-D configuration and from these mixed cPNAs containing all four nucleobases have been made. The sequence GTAGATCACT, capped at its C-terminus with L-lysinamide was synthesized, and its binding properties with oligonucleotides investigated. Since it is important to determine the preferred orientation of binding of these novel CPNAs to oligonucleotides, both of the possible complementary oligonucleotides were prepared, i.e. Sequence ID No. 2, and Sequence ID No. 3, and hybridised with the chiral PNA.
(§2) All the Tm measurements were carried out on a Varian CARY 13 UV spectrophotometer equipped with a temperature control system. […] The sample for Tm measurement was prepared by mixing calculated amounts of stock oligonucleotide and nucleopeptide solutions together and the calculated amounts of NaCl and sodium phosphate buffer (pH 7.0) were then added as stock solutions and the final volumes were adjusted to 3.0 ml by addition of water. […] The OD260 was recorded in steps from 5-95° C. (heater temperature) with a temperature increment of 0.25-0.5° C./min, The results were normalised by dividing the absorbance at each temperature by the initial absorbance. […] The melting temperatures were determined from the maxima of the first derivative plots of the normalised OD260 against temperature. […]

For another series, the system named is Sequence ID No. 3. Nature of the series: Tm of mixed-base cPNA hybridised with complementary oligonucleotide Sequence ID No. 3. It counts as binding.
Text: as §1, §2

The nature of another series: Solubility in water. It counts as physicochemical.
Series [1] deals with complementary oligonucleotides. Nature of the series: 1H NMR experiment: mixing cPNA with complementary oligonucleotides (solubility of complex). It counts as physicochemical. The note with it: mmolar concentration. As to the method:
Following the promising results obtained on the binding is studies of the cPNA with complementary oligonucleotides by Tm measurement, a ^1H NMR experiment was performed on the mixed sequence decamer, H-Gly-D-Pro(cis-4-G)-Gly-D-Pro(cis-4-T)-Gly-D-Pro(cis-4-A)-Gly-D-Pro(cis-4-G)-Gly-D-Pro(cis-4-A)-Gly-D-Pro(cis-4-T)-Gly-D-Pro(cis-4-C)-Gly-D-Pro(cis-4-A)-Gly-D-Pro(cis-4-C)-Gly-D-Pro(cis-4-T)-LysNH2, and its complementary oligonucleotides, both in parallel and antiparallel fashion. […] In an attempt to overcome this problem it was decided to synthesise a cPNA analogue, containing a hydrophilic spacer amino acid—namely serine—in place of the glycine spacer in the backbone while retaining the cis-D-configuration of the proline moiety. […] Thus the target molecules were diastereomeric thymine-decamers H-[L-Ser-D-Pro(cis-4-T)]10LysNH2 (“LD-ST10”) and H-[D-Ser-D-Pro(cis-4-T)]10LysNH2 (“DD-ST10”).

Series [2] has as its system dA10. In words: 1H NMR experiment: mixing DD-ST10 with dA10 (solubility of complex). It counts as physicochemical. Conditions: 0.5 mM DD-ST10 in 10% D2O-H2O. As to the method: A ^1H NMR study of a mixture of DD-ST10 and dA10 was attempted.
^1H NMR study of a mixture of DD-ST10 and dA10 was performed on a Bruker AMX 500 spectrometer (500 MHz). The ^1H NMR spectra of DD-ST10 and dA10 were recorded separately (at a concentration of 0.53 mM for the DD-ST10 and 0.67 mM for the dA10 in 10% D2O in H2O).

The subject of another series is poly(rA). In words: Melting curves (Tm) of 1:1 hybrids of cPNAs with poly(rA). The series is classed as binding. Conditions: 150 mM sodium chloride, 10 mM sodium phosphate pH 7.0; for Tm with poly (rA): 1:1 hybrid, 260 nm; for % hypochromicity with poly (rA): from melting curves at 260 nm. Here is the method:
(§3) The deca-thymine glycyl-proline peptide nucleic acids with cis-L, trans-D and cis-D stereochemistry, and C-terminal L-lysinamide were mixed in 1:1 ratio with poly(rA) and poly(dA) in the presence of 150 mM NaCl and sodium phosphate buffer (10 mM Na^+, pH 7.0) and the Tm determined (FIG. 3). […] The magnitudes of absorbance change were of the order of 30-40%.
(§4) All the Tm measurements were carried out on a Varian CARY 13 UV spectrophotometer equipped with a temperature control system. The machine was controlled by a CARY 13 software running on an IBM PS/2 system model 30/286. The sample for Tm measurement was prepared by mixing calculated amounts of stock oligonucleotide and nucleopeptide solutions together and the calculated amounts of NaCl and sodium phosphate buffer (pH 7.0) were then added as stock solutions and the final volumes were adjusted to 3.0 ml by addition of water. The samples were transferred to a 10 mm quartz cell with teflon stopper and equilibrated at the starting temperature for at least 30 min. The OD260 was recorded in steps from 5-95° C. (heater temperature) with a temperature increment of 0.25-0.5° C./min, The results were normalised by dividing the absorbance at each temperature by the initial absorbance. Analysis of the data was performed on a KaleidaGraph software 2.1.3 (Abelbeck Software) running on a Macintosh LC III computer. The OD260 was normalised by dividing with the initial OD260. The melting temperatures were determined from the maxima of the first derivative plots of the normalised OD260 against temperature. Percent hyperchromicity was calculated from the ratio of the OD260 at the end of experiment to the initial OD260.

The test system of another series is poly(dA). In words: Melting curves (Tm) of 1:1 hybrids of cPNAs with poly(dA). It counts as binding. Conditions: for Tm with poly (dA): 1:1 hybrid, 260 nm; for Tm with poly (dA) / % hypochromicity with poly (dA): 150 mM sodium chloride, 10 mM sodium phosphate pH 7.0; for % hypochromicity with poly (dA): from melting curves at 260 nm. As to the method: as §3
FIG. 3. The melting curves of the 1:1 hybrids of (a) H-[Gly-L-Pro(cis-4-T)]10-Lys-NH2, (b) H-[Gly-D-Pro(cis-4-T)]10-Lys-NH2, (c) H-[Gly-D-Pro(trans-4-T)]10-Lys-NH2 with poly(dA) at 150 mM NaCl, 10 mM sodium phosphate, pH 7.0 and (d) poly(dA) alone. The poly(dA) concentration was 10.8 μM dA nucleotide. The melting curves were recorded at 260 nm and the rate of heating was 0.5° C./min.
as §4

In series [3] the test system is dA10. In words: Melting curves (Tm) of hybrids of cPNAs with dA10. It counts as binding. Conditions: 260 nm; for Tm with dA10: 150 mM sodium chloride, 10 mM sodium phosphate pH 7.0. Here is the method:
Although both cis-D and cis-L analogues gave melting curves with poly(dA) and poly(rA), only the cis-D analogue gave a well-defined melting curve with (dA)10, with Tm=61° C., under the same conditions.
(§5) Further investigation of the nature of the cis-D peptide nucleic acid-oligonucleotide interaction was undertaken by determining the melting curve with (dT)10.
as §4

Another series relates to (dT)10. In words: Melting curve of 1:1 mixture with (dT)10. The series is classed as binding. As to the method: as §5
as §4, with “Analysis of the data was performed on a KaleidaGraph software 2.1.3 (Abelbeck Software) running on a Macintosh LC III computer. The OD260 was normalised by dividing with the initial OD260.” left out

`Cc1cn([C@H]2C[C@@H](C(=O)O)N(C(=O)CNC(=O)OCC3c4ccccc4-c4ccccc43)C2)c(=O)[nH]c1=O` [5a, N-(N-Fluoren-9-ylmethoxycarbonylglycyl)-cis-4-(thymin-1-yl)-L-proline]: the melting point (usually the temperature of the solid-liquid transition) is more than 200 °C.
`Cc1cn([C@H]2C[C@H](C(=O)O)N(C(=O)CNC(=O)OCC3c4ccccc4-c4ccccc43)C2)c(=O)[nH]c1=O` [5b, N-(N-Fluoren-9-ylmethoxycarbonylglycyl)-trans-4-(thymin-1-yl)-D-proline] came in with a melting point of more than 200 °C.
In turn, `Cc1cn([C@@H]2C[C@H](C(=O)O)N(C(=O)CNC(=O)OCC3c4ccccc4-c4ccccc43)C2)c(=O)[nH]c1=O` [5c, N-(N-Fluoren-9-ylmethoxycarbonylglycyl)-cis-4-(thymin-1-yl)-D-proline] showed a melting point of more than 200 °C.
`Cc1cn([C@H]2C[C@@H](C(=O)Oc3c(F)c(F)c(F)c(F)c3F)N(C(=O)CNC(=O)OCC3c4ccccc4-c4ccccc43)C2)c(=O)[nH]c1=O` [6a, N-(N-Fluoren-9-ylmethoxycarbonylglycyl)-cis-4-(thymin-1-yl)-L-proline pentafluorophenyl ester] returned a melting point of 124 to 126 °C.
With `Cc1cn([C@H]2C[C@H](C(=O)Oc3c(F)c(F)c(F)c(F)c3F)N(C(=O)CNC(=O)OCC3c4ccccc4-c4ccccc43)C2)c(=O)[nH]c1=O` [6b, N-(N-Fluoren-9-ylmethoxycarbonylglycyl)-trans-4-(thymin-1-yl)-D-proline pentafluorophenyl ester], the melting point lay in the range of 115 to 124 °C.
On the same count and under the same terms, next, `Cc1cn([C@@H]2C[C@H](C(=O)Oc3c(F)c(F)c(F)c(F)c3F)N(C(=O)CNC(=O)OCC3c4ccccc4-c4ccccc43)C2)c(=O)[nH]c1=O` [6c, N-(N-Fluoren-9-ylmethoxycarbonylglycyl)-cis-4-(thymin-1-yl)-D-proline pentafluorophenyl ester]: 122 to 126 °C; `O=C(NCC(=O)N1C[C@H](n2cnc3c(NC(=O)c4ccccc4)ncnc32)C[C@@H]1C(=O)Oc1c(F)c(F)c(F)c(F)c1F)OCC1c2ccccc2-c2ccccc21` [compound 10, N-(N-Fluoren-9-ylmethoxycarbonylglycyl)-cis-4-(N6-benzoyladenin-9-yl)-D-proline pentafluorophenyl ester]: 125 to 130 °C.
`O=C(NCC(=O)N1C[C@H](n2ccc(NC(=O)c3ccccc3)nc2=O)C[C@@H]1C(=O)Oc1c(F)c(F)c(F)c(F)c1F)OCC1c2ccccc2-c2ccccc21` [compound 13, N-(N-Fluoren-9-ylmethoxycarbonylglycyl)-cis-4-(N4-benzoylcytosin-1-yl)-D-proline pentafluorophenyl ester] returned a melting point of 133 to 137 °C.
On the same count and under the same terms, with `CC(C)C(=O)Nc1nc2c(ncn2[C@@H]2C[C@H](C(=O)Oc3c(F)c(F)c(F)c(F)c3F)N(C(=O)CNC(=O)OCC3c4ccccc4-c4ccccc43)C2)c(=O)[nH]1` [compound 16, N-(N-Fluoren-9-ylmethoxycarbonylglycyl)-cis-4-(N2-isobutyrylguanin-9-yl)-D-proline pentafluorophenyl ester] the figure was 146 to 150 °C.
In the case of “H-Gly-D-Pro(cis-4-G)-Gly-D-Pro(cis-4-T)-Gly-D-Pro(cis-4-A)-Gly-D-Pro(cis-4-G)-Gly-D-Pro(cis-4-A)-Gly-D-Pro(cis-4-T)-Gly-D-Pro(cis-4-C)-Gly-D-Pro(cis-4-A)-Gly-D-Pro(cis-4-C)-Gly-D-Pro(cis-4-T)-Lys-NH2 (GTAGATCACT; all [cPNA-N], 3' {LysNH2}, methylation of C not given here; glycyl-D-proline chiral PNA backbone, free N-terminus)”, the “Tm with complementary oligonucleotide Sequence ID No. 2” value in the series with Sequence ID No. 2 amounted to 47 °C. The “Tm with complementary oligonucleotide Sequence ID No. 3” value with Sequence ID No. 3 was 43 °C. For the same compound, the “solubility in water of the cPNA alone” value in “Solubility in water” was “freely soluble”. The “behaviour on mixing with complementary oligonucleotides (parallel and antiparallel)” value in series [1] is recorded as “a white precipitate formed immediately”.
Turning to “H-[D-Ser-D-Pro(cis-4-T)]10LysNH2 [DD-ST10]”, the “behaviour on addition of 20 mol % of dA10” value in the series with dA10 [2] is reported as “an immediate precipitation occurred”.
In the case of “H-[Gly-D-Pro(cis-4-T)]10-Lys-NH2 [H-[Gly-D-Pro(cis-4-T)]10-LysNH2]”, in the series with poly(rA), the “Tm with poly (rA)” value was found to be 72 °C and the “% hypochromicity with poly (rA)” value is 45%. In the series on poly(dA), the “Tm with poly (dA)” value came to 70 °C and the “% hypochromicity with poly (dA)” value is 28%. The “binding with poly(dA), comparison of the 10 mers” value with poly(dA) (10 mers derived from (6a), (6b) and (6c)) is listed as “binds most strongly”. Moreover, the “Tm with dA10” value with dA10 [3] was 61 °C. Moreover, the “hyperchromicity of 1:1 mixture with (dA)10” value in the series on dA10 [3] (on heating) is “ca. 20%”. The “increase in absorbance at 260 nm on heating, 1:1 mixture with (dT)10” value in the series on (dT)10 is on record as “no significant increase”.
Take “H-[Gly-D-Pro(trans-4-T)]10-Lys-NH2 [H-[Gly-D-Pro(trans-4-T)]10-LysNH2]”: in the series on poly(rA), the “Tm with poly (rA)” value was “No melting”. The “Tm with poly (dA)” value with poly(dA) is listed as “No melting”. In the series with dA10 [3], the “Tm with dA10” value was “No melting”. The “solubility in water compared with the other T10 cPNAs” value in the series “Solubility in water” is listed as “considerably more soluble than the other two”.
Regarding “H-[Gly-L-Pro(cis-4T)]10-Lys-NH2 [H-[Gly-L-Pro(cis-4-T)]10-LysNH2]”, in the series with poly(rA), the “Tm with poly (rA)” value turned out to be 73 °C and the “% hypochromicity with poly (rA)” value was determined as 36%. Also, in the series with poly(dA), the “Tm with poly (dA)” value was found to be 69 °C and the “% hypochromicity with poly (dA)” value is on record as 40%. Moreover, the “Tm with dA10” value in the series on dA10 [3] was found to be 42 °C. The “Tm with dA10” value with dA10 [3] (listed as cis-L analogue) is given as “near room temperature”.
